Legend:
Assay type in all cases: biochemical
PDGFRB = biological target: T1, PDGFRB (Homo sapiens, UniProt P09619); experiment: Kinase inhibition assay (33P transfer), PDGFRB; settings: read-out: PDGFRB-1
T1 construct: Kinases are expressed as either kinase domains or full length constructs; made in house

IGFR-1 = biological target: T2, IGFR-1 (Homo sapiens, UniProt P08069); experiment: Kinase inhibition assay, IGFR-1 (Table 2); settings: Table 2, kinase inhibition class
T2 construct: Kinases are expressed as either kinase domains or full length constructs; made in house
T2 sequence (P08069 31-1367): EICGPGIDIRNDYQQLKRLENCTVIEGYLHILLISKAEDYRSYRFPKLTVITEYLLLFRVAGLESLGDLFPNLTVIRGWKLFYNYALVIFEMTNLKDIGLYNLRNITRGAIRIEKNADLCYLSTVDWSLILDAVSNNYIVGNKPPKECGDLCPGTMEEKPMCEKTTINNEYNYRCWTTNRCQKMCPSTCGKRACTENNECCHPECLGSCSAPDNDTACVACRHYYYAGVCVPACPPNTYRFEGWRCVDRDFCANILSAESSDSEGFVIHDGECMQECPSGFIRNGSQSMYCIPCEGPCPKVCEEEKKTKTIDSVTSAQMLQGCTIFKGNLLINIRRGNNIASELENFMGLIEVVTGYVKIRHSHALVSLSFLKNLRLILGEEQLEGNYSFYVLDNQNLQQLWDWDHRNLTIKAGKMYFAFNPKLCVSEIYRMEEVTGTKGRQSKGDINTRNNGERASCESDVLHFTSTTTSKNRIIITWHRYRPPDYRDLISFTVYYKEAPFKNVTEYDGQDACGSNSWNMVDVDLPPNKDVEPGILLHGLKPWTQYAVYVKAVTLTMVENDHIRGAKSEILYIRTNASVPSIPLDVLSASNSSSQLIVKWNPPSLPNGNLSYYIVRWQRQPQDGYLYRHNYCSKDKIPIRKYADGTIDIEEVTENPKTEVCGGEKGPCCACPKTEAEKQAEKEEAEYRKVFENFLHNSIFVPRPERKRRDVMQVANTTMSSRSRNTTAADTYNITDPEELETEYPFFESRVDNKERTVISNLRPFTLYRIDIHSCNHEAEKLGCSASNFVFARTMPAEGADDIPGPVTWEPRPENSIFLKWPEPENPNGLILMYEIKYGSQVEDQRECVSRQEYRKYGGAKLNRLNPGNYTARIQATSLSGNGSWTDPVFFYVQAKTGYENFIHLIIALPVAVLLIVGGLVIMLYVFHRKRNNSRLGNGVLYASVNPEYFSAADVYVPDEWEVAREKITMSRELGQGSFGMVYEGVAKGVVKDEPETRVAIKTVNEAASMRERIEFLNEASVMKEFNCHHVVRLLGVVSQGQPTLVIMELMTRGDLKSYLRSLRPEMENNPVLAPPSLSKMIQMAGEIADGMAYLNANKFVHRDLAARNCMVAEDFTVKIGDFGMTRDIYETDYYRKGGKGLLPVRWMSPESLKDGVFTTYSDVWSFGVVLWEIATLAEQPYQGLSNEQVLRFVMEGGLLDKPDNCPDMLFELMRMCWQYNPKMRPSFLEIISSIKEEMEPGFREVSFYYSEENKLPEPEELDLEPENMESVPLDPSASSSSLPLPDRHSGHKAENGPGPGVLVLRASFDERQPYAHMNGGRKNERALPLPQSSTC

Itk = biological target: T3, Itk (Homo sapiens, UniProt Q08881); experiment: Kinase inhibition assay (33P transfer), Itk; settings: read-out: Itk-1
T3 construct: Kinases are expressed as either kinase domains or full length constructs; made in house
T3 sequence (Q08881 1-620): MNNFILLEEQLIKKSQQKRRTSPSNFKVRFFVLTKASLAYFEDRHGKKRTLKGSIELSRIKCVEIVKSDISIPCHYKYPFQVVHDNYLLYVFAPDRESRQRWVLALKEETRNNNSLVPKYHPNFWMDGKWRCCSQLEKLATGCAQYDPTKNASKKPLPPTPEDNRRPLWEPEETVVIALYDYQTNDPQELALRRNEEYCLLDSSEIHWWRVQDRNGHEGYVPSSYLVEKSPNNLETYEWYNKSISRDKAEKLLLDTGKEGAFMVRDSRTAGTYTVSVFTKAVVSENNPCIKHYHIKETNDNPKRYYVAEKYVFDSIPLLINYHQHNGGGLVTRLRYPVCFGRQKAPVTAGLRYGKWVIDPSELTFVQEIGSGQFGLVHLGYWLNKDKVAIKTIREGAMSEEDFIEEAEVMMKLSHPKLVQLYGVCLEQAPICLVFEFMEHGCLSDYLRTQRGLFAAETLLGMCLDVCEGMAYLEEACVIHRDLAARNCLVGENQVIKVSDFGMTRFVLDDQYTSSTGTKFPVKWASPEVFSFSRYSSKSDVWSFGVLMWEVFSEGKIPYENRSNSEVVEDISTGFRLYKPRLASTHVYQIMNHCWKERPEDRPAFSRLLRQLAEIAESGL
Summary of the method: (§1)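 Read-out: scintillation counts of 33P moved from ATP onto synthetic peptide polymer coated on the well surface, after washing with 0.5% phosphoric acid. Enzymes were tagged (GST or polyHistidine) and came from bacterial or insect-cell expression. IC50 marks 50% loss of incorporated label.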

AKT = biological target: T4, AKT (Homo sapiens, UniProt Q9Y243); experiment: Kinase inhibition assay (33P transfer), AKT; settings: Table 2, kinase inhibition class; read-out: AKT3-1
T4 construct: Kinases are expressed as either kinase domains or full length constructs; made in house
T4 sequence (Q9Y243 whole entry, the tested form may be a part): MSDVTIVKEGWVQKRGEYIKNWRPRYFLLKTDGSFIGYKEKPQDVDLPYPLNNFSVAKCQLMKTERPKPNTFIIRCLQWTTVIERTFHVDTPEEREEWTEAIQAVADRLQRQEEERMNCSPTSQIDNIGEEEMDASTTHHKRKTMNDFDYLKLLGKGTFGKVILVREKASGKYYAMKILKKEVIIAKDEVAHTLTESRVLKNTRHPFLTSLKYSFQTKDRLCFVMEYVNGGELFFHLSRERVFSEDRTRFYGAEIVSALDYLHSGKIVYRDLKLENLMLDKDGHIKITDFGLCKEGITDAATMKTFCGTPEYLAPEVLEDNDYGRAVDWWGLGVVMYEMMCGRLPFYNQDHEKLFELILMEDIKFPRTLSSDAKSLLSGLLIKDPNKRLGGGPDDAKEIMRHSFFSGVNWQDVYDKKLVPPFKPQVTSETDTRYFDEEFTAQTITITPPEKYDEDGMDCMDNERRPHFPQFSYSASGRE
Summary of the method: (§2)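 Activity was read as 33P incorporation, counted by liquid scintillation after a 0.5% phosphoric acid wash, into poly(Glu,Tyr) 4:1 or poly(Arg,Ser) 3:1 substrates coated on plates. Enzymes were tagged (GST or polyHis) kinase domains or full-length proteins from bacterial or insect-cell expression, sometimes with regulatory polypeptides.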

Kdr = biological target: T5, Kdr (Homo sapiens, UniProt P35968); experiment: Kinase inhibition assay (33P transfer), Kdr; settings: read-out: KDR-1
T5 construct: Kinases are expressed as either kinase domains or full length constructs; made in house
Summary of the method: as §2

c-Met = biological target: T6, c-Met (Homo sapiens, UniProt P08581); experiment: Kinase inhibition assay (33P transfer), c-Met; settings: Table 2, kinase inhibition class; read-out: Met-1
T6 construct: Kinases are expressed as either kinase domains or full length constructs; made in house
Summary of the method: as §1

Zap-70 = biological target: T7, Zap-70 (Homo sapiens, UniProt P43403); experiment: Kinase inhibition assay (33P transfer), Zap-70; settings: read-out: Zap-1
T7 construct: Kinases are expressed as either kinase domains or full length constructs; made in house
T7 sequence (P43403 1-619): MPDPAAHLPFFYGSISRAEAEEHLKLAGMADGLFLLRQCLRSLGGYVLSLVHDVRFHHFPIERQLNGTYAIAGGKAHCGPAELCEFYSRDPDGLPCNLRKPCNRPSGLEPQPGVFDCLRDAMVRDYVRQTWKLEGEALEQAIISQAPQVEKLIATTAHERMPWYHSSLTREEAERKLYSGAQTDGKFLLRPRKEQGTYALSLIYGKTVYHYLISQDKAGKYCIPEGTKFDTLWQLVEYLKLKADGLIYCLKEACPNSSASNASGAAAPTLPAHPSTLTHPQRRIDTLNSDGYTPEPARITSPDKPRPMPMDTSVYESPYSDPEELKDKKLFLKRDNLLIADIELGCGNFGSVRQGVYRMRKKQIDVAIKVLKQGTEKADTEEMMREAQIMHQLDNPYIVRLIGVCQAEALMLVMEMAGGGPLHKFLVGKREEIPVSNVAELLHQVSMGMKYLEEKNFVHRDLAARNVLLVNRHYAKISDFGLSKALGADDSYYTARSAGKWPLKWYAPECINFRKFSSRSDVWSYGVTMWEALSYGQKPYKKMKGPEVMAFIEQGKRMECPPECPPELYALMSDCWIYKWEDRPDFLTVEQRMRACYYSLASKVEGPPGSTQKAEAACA
Summary of the method: as §2

Lck = biological target: T8, Lck (Homo sapiens, UniProt P06239); experiment: Kinase inhibition assay (33P transfer), Lck; settings: read-out: Lck-1
T8 construct: Kinases are expressed as either kinase domains or full length constructs; made in house
T8 sequence (P06239 whole entry, species assumed, the tested form may be a part): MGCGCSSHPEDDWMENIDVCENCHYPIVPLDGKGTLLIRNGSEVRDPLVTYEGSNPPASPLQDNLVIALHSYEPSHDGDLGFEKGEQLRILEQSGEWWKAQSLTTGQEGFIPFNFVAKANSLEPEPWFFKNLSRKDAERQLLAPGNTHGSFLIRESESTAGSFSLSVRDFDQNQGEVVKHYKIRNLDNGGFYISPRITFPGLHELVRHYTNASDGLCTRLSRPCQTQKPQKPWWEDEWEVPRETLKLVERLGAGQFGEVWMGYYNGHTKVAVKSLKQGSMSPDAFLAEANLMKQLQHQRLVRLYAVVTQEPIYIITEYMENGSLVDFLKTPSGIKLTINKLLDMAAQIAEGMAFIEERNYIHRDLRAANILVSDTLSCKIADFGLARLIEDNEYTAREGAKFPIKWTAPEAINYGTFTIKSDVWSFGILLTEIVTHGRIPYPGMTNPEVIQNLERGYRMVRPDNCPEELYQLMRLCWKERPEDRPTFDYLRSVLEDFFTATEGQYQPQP
Summary of the method: as §2

ErbB2 = biological target: T9, ErbB2 (Homo sapiens, UniProt P04626); experiment: Kinase inhibition assay (33P transfer), ErbB2; settings: read-out: ErbB2-2
T9 construct: Kinases are expressed as either kinase domains or full length constructs; made in house
T9 sequence (P04626 23-1255, species assumed): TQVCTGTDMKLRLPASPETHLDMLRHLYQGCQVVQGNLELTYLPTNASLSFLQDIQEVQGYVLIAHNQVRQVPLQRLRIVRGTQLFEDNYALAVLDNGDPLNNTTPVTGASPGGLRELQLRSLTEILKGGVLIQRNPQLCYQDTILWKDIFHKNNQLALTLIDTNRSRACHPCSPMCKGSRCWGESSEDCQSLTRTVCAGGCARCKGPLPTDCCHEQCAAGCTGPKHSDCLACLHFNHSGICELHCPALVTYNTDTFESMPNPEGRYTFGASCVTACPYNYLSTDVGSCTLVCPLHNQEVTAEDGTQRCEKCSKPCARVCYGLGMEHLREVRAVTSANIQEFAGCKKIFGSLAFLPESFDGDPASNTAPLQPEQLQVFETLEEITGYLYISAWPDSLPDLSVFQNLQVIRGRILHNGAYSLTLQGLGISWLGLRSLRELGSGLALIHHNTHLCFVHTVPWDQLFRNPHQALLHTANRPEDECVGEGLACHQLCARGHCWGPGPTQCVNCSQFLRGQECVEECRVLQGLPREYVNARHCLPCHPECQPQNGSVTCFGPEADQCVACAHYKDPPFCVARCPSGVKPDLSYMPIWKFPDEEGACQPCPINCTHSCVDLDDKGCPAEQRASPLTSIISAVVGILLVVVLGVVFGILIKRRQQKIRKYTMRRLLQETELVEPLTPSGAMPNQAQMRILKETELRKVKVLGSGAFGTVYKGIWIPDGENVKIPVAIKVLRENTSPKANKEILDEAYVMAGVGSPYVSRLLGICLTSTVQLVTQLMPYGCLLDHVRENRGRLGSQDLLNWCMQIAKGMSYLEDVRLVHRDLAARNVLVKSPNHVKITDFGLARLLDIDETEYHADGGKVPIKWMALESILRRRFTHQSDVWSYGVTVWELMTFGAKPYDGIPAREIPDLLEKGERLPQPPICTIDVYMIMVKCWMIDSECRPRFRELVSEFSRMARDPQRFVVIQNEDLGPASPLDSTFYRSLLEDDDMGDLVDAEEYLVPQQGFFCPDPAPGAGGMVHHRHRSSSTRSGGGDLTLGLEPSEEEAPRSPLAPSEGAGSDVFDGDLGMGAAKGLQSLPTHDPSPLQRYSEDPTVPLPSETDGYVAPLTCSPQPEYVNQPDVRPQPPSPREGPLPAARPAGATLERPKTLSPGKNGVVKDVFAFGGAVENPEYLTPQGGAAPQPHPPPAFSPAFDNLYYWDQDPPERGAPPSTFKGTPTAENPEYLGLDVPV
Summary of the method: as §1

EGFR = biological target: T10, EGFR (Homo sapiens, UniProt P00533); experiment: Kinase inhibition assay (33P transfer), EGFR; settings: Table 2, kinase inhibition class; read-out: EGFR-1
T10 construct: Kinases are expressed as either kinase domains or full length constructs; made in house
T10 sequence (P00533 25-1210, species assumed): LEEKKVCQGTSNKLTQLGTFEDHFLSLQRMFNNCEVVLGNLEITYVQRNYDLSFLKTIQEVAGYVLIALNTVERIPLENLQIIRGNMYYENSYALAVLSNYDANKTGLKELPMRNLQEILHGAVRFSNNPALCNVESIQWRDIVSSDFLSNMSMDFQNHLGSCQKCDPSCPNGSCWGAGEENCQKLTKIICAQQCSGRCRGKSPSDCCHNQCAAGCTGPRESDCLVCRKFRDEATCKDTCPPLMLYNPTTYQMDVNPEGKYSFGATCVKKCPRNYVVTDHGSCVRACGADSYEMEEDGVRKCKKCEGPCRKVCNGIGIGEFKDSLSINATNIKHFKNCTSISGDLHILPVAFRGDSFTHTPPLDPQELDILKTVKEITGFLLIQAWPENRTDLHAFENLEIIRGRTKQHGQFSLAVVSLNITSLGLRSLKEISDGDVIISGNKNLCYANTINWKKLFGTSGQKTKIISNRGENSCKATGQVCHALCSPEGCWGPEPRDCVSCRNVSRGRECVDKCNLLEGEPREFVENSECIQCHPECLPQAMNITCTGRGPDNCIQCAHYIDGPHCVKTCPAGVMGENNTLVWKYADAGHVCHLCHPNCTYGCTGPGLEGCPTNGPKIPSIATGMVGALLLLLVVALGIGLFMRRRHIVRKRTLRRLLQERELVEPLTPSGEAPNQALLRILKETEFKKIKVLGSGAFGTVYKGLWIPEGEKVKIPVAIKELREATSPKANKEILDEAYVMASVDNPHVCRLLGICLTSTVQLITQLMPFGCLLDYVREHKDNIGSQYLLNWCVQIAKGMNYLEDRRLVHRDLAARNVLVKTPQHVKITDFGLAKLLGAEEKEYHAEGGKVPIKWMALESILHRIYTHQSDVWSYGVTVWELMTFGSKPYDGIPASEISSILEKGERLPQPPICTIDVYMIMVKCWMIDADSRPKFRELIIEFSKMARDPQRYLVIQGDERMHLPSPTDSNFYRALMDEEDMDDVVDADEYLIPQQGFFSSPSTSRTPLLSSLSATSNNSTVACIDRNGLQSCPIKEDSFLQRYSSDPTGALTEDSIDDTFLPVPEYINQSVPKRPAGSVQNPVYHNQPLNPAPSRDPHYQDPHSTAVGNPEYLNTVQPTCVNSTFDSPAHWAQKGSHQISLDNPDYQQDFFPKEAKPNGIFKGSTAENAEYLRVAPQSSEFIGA
Summary of the method: as §1

SMILES	IC50 (PDGFRB) [µM]	IC50 (IGFR-1) [µM]	IC50 (Itk) [µM]	IC50 (AKT) [µM]	IC50 (Kdr) [µM]	IC50 (c-Met) [µM]	IC50 (Zap-70) [µM]	IC50 (Lck) [µM]	IC50 (ErbB2) [µM]	IC50 (EGFR) [µM]
COc1cc(Nc2ncnc(NC3CCc4ccccc43)n2)cc(OC)c1OC (stereo not shown) [Compound 581]	6.1 to 8.9	> 11.4	> 11.4	> 11.4	8.9 to 11.4	> 11.4	> 11.4	1.02 to 6.1	> 11.4	1.02 to 6.1
CN(c1cccc(Cl)c1)c1ncnc(N(C)c2cccc(Cl)c2)n1 [Compound 702]	> 12.5	> 12.5	> 12.5	> 12.5	> 12.5	> 12.5	> 12.5	> 12.5	> 12.5	1.11 to 6.66
COc1cc(Br)ccc1Nc1nc2ccccc2n1-c1ncnc(Nc2cc(OC)c(OC)c(OC)c2)n1 [Compound 1052]	4.15 to 6.05	> 7.78	> 7.78	> 7.78	0.692 to 4.15	> 7.78	> 7.78	> 7.78	4.15 to 6.05	> 7.78
COc1ccc(Nc2ncnc(NCCCOC(C)C)n2)cc1OC [Compound 785]	> 13	> 13	> 13	> 13	> 13	> 13	> 13	> 13	> 13	> 13
N#CCc1ccc(Nc2ncnc(Nc3ccc4c(cnn4Cc4ccccc4)c3)n2)cc1 [Compound 731]	0.925 to 5.55	0.925 to 5.55	0.925 to 5.55	8.09 to 10.4	0.925 to 5.55	0.925 to 5.55	5.55 to 8.09	0.925 to 5.55	< 0.925	< 0.925
COc1cc(Nc2ncnc(Nc3cc(OC)c(OCCN4CCOCC4)c(OC)c3)n2)cc(OC)c1OC [Compound 562]	4.42 to 6.45	4.42 to 6.45	> 8.29	> 8.29	4.42 to 6.45	> 8.29	> 8.29	< 0.737	4.42 to 6.45	< 0.737
COc1cc(Nc2ncnc(-n3c(NCc4cccc([N+](=O)[O-])c4)nc4ccccc43)n2)cc(OC)c1OC [Compound 572]	< 0.757	> 8.51	> 8.51	> 8.51	< 0.757	6.62 to 8.51	> 8.51	0.757 to 4.54	6.62 to 8.51	> 8.51
CNS(=O)(=O)Cc1ccc(Nc2ncnc(Nc3ccc4c(cnn4Cc4ccccc4)c3)n2)cc1 [Compound 736]	0.799 to 4.79	0.799 to 4.79	0.799 to 4.79	0.799 to 4.79	0.799 to 4.79	0.799 to 4.79	0.799 to 4.79	0.799 to 4.79	0.799 to 4.79	0.799 to 4.79
COc1cc(Nc2ncnc(-n3c(Nc4ccc(N(C)C)cc4)nc4ccccc43)n2)cc(OC)c1OC [Compound 1051]	0.78 to 4.68	4.68 to 6.83	4.68 to 6.83	> 8.78	< 0.78	> 8.78	> 8.78	< 0.78	0.78 to 4.68	> 8.78
COc1ccc(Nc2ncnc(NCCNC(C)=O)n2)cc1OC [Compound 784]	> 13.5	> 13.5	> 13.5	> 13.5	> 13.5	> 13.5	> 13.5	> 13.5	> 13.5	> 13.5
